The results in this text go back to patent US9532997B2, “Compositions and methods for promoting intestinal stem cell function” (Whitehead Institute for Biomedical Research, priority 2012, dated 2017).

Entries after “also recorded” stand apart in the source; their conditions may differ.

Assay [1] addresses T1, mTORC1 (Mus musculus, UniProt P26883+Q9JLN9).
T1 construct: from tissue; host or cells: mouse small intestine sections, isolated crypts and sorted Paneth cells
Briefly: Phospho-S6 (P-S6) immunostain as mTORC1 reporter in intestine / sorted Paneth cells. The assay is classed as in vivo, mice. From the text:
Mice were housed in the Unit for Laboratory Animal Medicine at the Whitehead Institute for Biomedical Research. Lgr5-EGFP-IRES-CreERT2 mice (Strain name: B6.129P2-Lgr5tm1(cre/ERT2)Cle/J, Stock Number: 008875) were purchased from Jackson Laboratories. UbiquitinC-CreERT2 mice were obtained from the Jackson Laboratory (Strain Name: B6; 129S-Tg(UBC-cre/ERT2)1Ejb/J, Stock Number: 007001). Rictor floxed mice were generated as described in^27 and backcrossed to C57BL/6 for at least 6 generations. TSC1^loxp/loxp mice were the generous gift of D. Kwiatkowski (Harvard Medical School) and backcrossed to C57BL/6 for at least 6 generations. Rosa26-CreERT2 mice (Rosa26 or R26) were obtained from the Jackson Laboratory (Strain 15 Name: B6.129-Gt(ROSA)26Sor^iml(cre/ERT2)Tyj/J, Stock Number 008463). CR was achieved by providing individual or paired mice a daily portion of a chow diet fortified with vitamins and minerals amounting to 60% of the daily food intake of their ad libitum counterparts^20. All adult mice used in CR experiments were between the ages of 10 to 24 weeks and were sacrificed prior to their daily feeding. Rictor or TSC1 was excised by treatment with tamoxifen suspended in corn or sunflower seed oil (Spectrum) at a concentration of 10 mg/mL, and 200 μl per 25 g of body weight was injected intraperitoneally into mice once daily for 5-7 days. […] Mice were allowed to recover for at least 7 days after the last tamoxifen injection prior to any experiments. In vivo fate mapping in Lgr5-EGFP-IRES-reERT2; Rosa26loxpstoploxp-LacZ compound mice was done with a single injection of tamoxifen given at 200 μl per 25 g. As described previously^28, Rapamycin (LC Laboratories) was administered by intraperitoneal injection for 7 to 28 consecutive doses at 4 mg/kg. It was reconstituted in absolute ethanol at 10 mg/ml and diluted in 5% Tween-80 (Sigma) and 5% PEG-400 (Hampton Research) before injection. The final volume of all injections was 200 μl. Regular insulin (Lilly) was administered at 0.75 U/kg diluted in PBS 20 minutes prior to sacrificing fasted mice. […]

The subject of assay [2] is AL and CR-derived crypts. Briefly: Crypt culture organoid formation with agent added to culture media. The assay is classed as cell-based, mice. The following applies: for organoid forming capacity of AL and CR-derived crypts: 100 nM, FIG. 4h. As to the method:
Small intestines were removed and the fat/mesentery was dissected away. The intestinal lumen was washed with ice cold PBS (Mg—/Ca—) using a 18 G feeding needle (Roboz FN-7905) until the intestines appeared white/pink. They were then opened longitudinally. The mucous was removed by gently rubbing the intestine between fingers in cold PBS. The intestines were cut into 3 to 5 mm fragments and placed into 50 ml conical tubes that were fill with ice cold 30 ml of PBS (Mg—/Ca—)/EDTA (10 mM). The samples were incubated and shook intermittently on ice for 30 minutes continuously discarding and replacing (at least 3 times) the supernatant. The fragments were then continually resuspended with ice cold 30 ml PBS (Mg—/Ca—)/EDTA (10 mM) and intermittently shook on ice for 10 minutes, discarding the supernatant again for 3 times. The fragments were resuspended again with ice cold 30 ml PBS (Mg—/Ca—)/EDTA (10 mM) and incubated and intermittently shook while waiting on ice for 20 to 40 minutes. The samples were then triturated with a 10 ml pipette 1 to 2 times, and the contents were filtered twice through a 70-μm mesh (BD Falcon) into a 50 ml conical tube to remove villous material and tissue fragments. At this point the suspension was mainly composed of crypts. Crypts were removed from this step for crypt culture experiments and embedded in matrigel with crypt culture media. For ISC isolation, the crypt suspensions were centrifuged for 5 minutes at 250 g (4 C or room temperature). The pellets were gently resuspended in 1.0 ml of undiluted TrypLE Express (Invitrogen)+120 μl of DNase I (10 U/μl, Roche) and transferred to 15 ml conical tubes. The samples were incubated in a 32° C. water bath for 1.25 to 2 minutes, were not titurated, and were then placed on ice. 12 ml of cold SMEM was added to each sample and were gently triturated twice. […]
Isolated crypts were counted and embedded in matrigel (BD Bioscience 356231 growth factor reduced) that contains 1 μM Jagged (Ana-Spec) at 5-10 crypts/μl and cultured in a modified form of medium as described in^3. […]

The target in assay [3] is T2, Bst-1 (Mus musculus, UniProt Q64277).
T2 construct: endogenous in cells; host or cells: primary small-intestinal crypts from calorie-restricted mice, cultured in matrigel
T2 sequence (Q64277 25-286): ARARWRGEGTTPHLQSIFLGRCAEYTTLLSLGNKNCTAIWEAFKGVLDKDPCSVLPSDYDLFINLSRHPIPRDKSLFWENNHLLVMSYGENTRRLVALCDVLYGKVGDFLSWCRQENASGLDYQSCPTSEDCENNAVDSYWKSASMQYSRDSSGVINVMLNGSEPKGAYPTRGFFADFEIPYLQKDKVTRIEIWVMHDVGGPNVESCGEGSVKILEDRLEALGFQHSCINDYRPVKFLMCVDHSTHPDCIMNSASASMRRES
Briefly: Bst-1 siRNA knock-down in CR-derived crypts, organoid formation. The assay is classed as cell-based, mice. The settings on record: cADPR added to siRNA-treated crypts. The procedure: Isolated ISCs or Paneth cells were centrifuged for 5 minutes at 250 g and then resuspended in the appropriate volume of crypt culture medium (500-1000 cells/μl) supplemented with 1×N2 (Invitrogen), 1×B27 (Invitrogen), 100 ng/ml Wnt-3A (R&D), and with additional 500 ng/ml R-Spondin to yield 1 μg/ml final concentration. ISCs were then seeded into matrigel (BD Bioscience 356231 growth factor reduced) containing 1 μM Jagged (Ana-Spec) up to 5,000-10,000 cells/30-50 μl. 30 μl drops of 65% matrigel were plated onto a flat bottom 48-well plate (Corning 3548) and then Paneth cells were added at the same cell count to the top of the matrigel drop. Alternatively, ISCs and Paneth cells were mixed after sorting in a 1:1 ratio, centrifuged, and then seeded into matrigel. The matrigel drops with ISCs and Paneth cells were allowed to solidify for 20 to 30 minutes in a 37° C. incubator. […] Organoid bodies were quantitated on days 3, 7, and 9 days of culture, unless otherwise specified. In subcloning experiments, either individual or cultures of organoids were manually disrupted as indicated in the text on day 7-9 by rigorous tituration and replated into fresh matrigel; these secondary organoid bodies were quantitated on day 18 after initiation of the primary cultures. […]

As to “insulin: Regular insulin (Lilly) administered at 0.75 U/kg to fasted mice”, in assay [1] (20 minutes after injection, FIG. 2b), the “P-S6 in sorted Paneth cells from fasted mice” value is reported as “induced”. In addition, in assay [1] (fasted mice, insulin 0.75 U/kg, FIG. 2a), the “mTORC1 activity (P-S6) in Paneth cells” value is on record as “activates mTORC1 in Paneth cells”.
Regarding `OCCN(CCO)c1nc(N2CCCCC2)c2nc(N(CCO)CCO)nc(N3CCCCC3)c2n1` [Dipyridamole], the “organoid forming capacity of AL and CR-derived crypts” value was “reduced the organoid forming capacity of AL and CR-derived crypts to a similar level” in assay [2]; “reduced the clonogenicity of CR and AL-derived crypts to same level” in assay [2] (listed as dipyridamole).
With `N=c1c2ncn3c2ncn1[C@@H]1O[C@H](COP(=O)(O)OP(=O)(O)OC[C@H]2O[C@@H]3[C@H](O)[C@@H]2O)[C@@H](O)[C@H]1O` [cADPR, cyclic ADP ribose], the “rescue of function of Bst-1 knock-down CR crypts” value in assay [3] is “sufficient to rescue the function of these crypts”. The “organoid forming potential (clonogenicity and size) of AL crypts” value in assay [2] (50 μM added to culture media, FIG. 4e) was “significantly improved the clonogenicity and size of AL-derived organoid bodies; also recorded: increased the organoid forming potential of AL crypts to an extent similar to those of CR crypts”.
